The subject of this assay is Plasmodium berghei. The assay can be described thus: Luciferase/luciferin-expressing antifolate-resistant parasites were used to infect a culture of HepG2 cells that were pre-incubated with compounds. Infected hepatocytes emit light due to the luciferase reaction. Assay results are presented as the percent inhibition of light emission compared to control. […]. Type of assay: functional. Particulars: sporozoite; for IC90: read-out: LUCIFERASE INFECTION ASSAY - IC90.

For the compound `CC(Oc1ccc(Cl)cc1)C(=O)Nc1sccc1C(N)=O` (configuration not stated), the IC90 amounted to 4.27 µM. Also, the 50% inhibitory concentration (IC50) (PBLUC_HILL_SLOPE 15.8, PBLUC_R_SQUARED 0.448, read-out: LUCIFERASE INFECTION ASSAY - IC50) worked out at 3.72 µM.
Take `COc1cc2c(cc1OC)CN(c1nc(CN3CCOCC3)nc3sc4c(c13)CCC(C)C4)CC2` (configuration not stated): the concentration for an effect of 90% (IC90) was found to be 3.91 µM. In addition, the concentration for half-maximal inhibition (IC50) (PBLUC_HILL_SLOPE 15.9, PBLUC_R_SQUARED 0.656, read-out: LUCIFERASE INFECTION ASSAY - IC50) worked out at 3.41 µM.
For the compound `COc1cc(NC(=O)Nc2nc(C(N)Cc3ccc(C(F)(F)F)cc3)cs2)cc(OC)c1OC` (configuration not stated), the IC90 is above 6.65 µM. For the setting “PBLUC_HILL_SLOPE 15.7, PBLUC_R_SQUARED 0.39, read-out: LUCIFERASE INFECTION ASSAY - IC50”, the IC50 amounted to 6.04 µM.
For `c1ccn2c(Sc3ncnc4sccc34)nnc2c1`, the IC90 came to 9.31 µM. Where the note is “PBLUC_HILL_SLOPE 16.1, PBLUC_R_SQUARED 0.0872, read-out: LUCIFERASE INFECTION ASSAY - IC50”, the half-inhibitory concentration (IC50) is 8.13 µM.
With `CCCn1c(NC(=O)c2ccc3ccccc3n2)nc2ccccc21`, the concentration for an effect of 90% (IC90) worked out at 3.56 µM. The IC50 (PBLUC_HILL_SLOPE 15.7, PBLUC_R_SQUARED 0.527, read-out: LUCIFERASE INFECTION ASSAY - IC50) is 3.1 µM.
Consider `Cc1sc2nc(-c3cccnc3)nc(N3CCN(C(=O)C4COc5ccccc5O4)CC3)c2c1C` (configuration not stated), for which the concentration for an effect of 90% (IC90) is above 10 µM. The half-maximal inhibitory concentration (IC50) (PBLUC_HILL_SLOPE 15.9, PBLUC_R_SQUARED 0.0253, read-out: LUCIFERASE INFECTION ASSAY - IC50) came out at 9.35 µM.
Consider `OC(c1ccc(F)c(Cl)c1)c1nnc(Nc2cc(C(F)(F)F)ccc2F)s1` (configuration not stated), for which the IC90 is above 10 µM. Further, where the note is “PBLUC_HILL_SLOPE 15.9, PBLUC_R_SQUARED 0.206, read-out: LUCIFERASE INFECTION ASSAY - IC50”, the half-maximal inhibitory concentration (IC50) was 9.29 µM.
Regarding `OCc1ccc(-c2cnc3cnc(-c4cccc(Cl)c4)cn23)cc1`, the IC90 was above 9.83 µM. Further, where the note is “PBLUC_HILL_SLOPE 16, PBLUC_R_SQUARED 0.272, read-out: LUCIFERASE INFECTION ASSAY - IC50”, the half-maximal inhibitory concentration (IC50) worked out at 9.56 µM.
As for `CC(C(=O)NCc1ccco1)c1ccc2c(c1)[nH]c1ccc(Cl)cc12` (configuration not stated), the concentration for an effect of 90% (IC90) is above 9.35 µM. The IC50 (PBLUC_HILL_SLOPE 15.7, PBLUC_R_SQUARED 0.128, read-out: LUCIFERASE INFECTION ASSAY - IC50) is above 9.35 µM.
Regarding `CN(C)CCNC(=O)c1cccc(-c2cc(-c3ccc(-c4ccccc4)cc3F)cnc2N)c1`, the 90% effect concentration (IC90) is above 7.26 µM. Moreover, the IC50 (PBLUC_HILL_SLOPE 15.7, PBLUC_R_SQUARED 0.255, read-out: LUCIFERASE INFECTION ASSAY - IC50) was above 7.26 µM.
`Cc1nc2c(C(N)=O)ncn2c(C)c1CCC(=O)Nc1ccc2oc3ccccc3c2c1`: the concentration for an effect of 90% (IC90) came to 9.76 µM. Besides, the IC50 (PBLUC_HILL_SLOPE 15.8, PBLUC_R_SQUARED 0.091, read-out: LUCIFERASE INFECTION ASSAY - IC50) stood at 9.25 µM.
For the compound `O=c1cc(CN2CCN(C(c3ccc(F)cc3)c3ccc(F)cc3)CC2)nc2ccc(Cl)cn12`, the 90% effect concentration (IC90) was found to be 9.88 µM. In addition, the 50% inhibitory concentration (IC50) (PBLUC_HILL_SLOPE 16, PBLUC_R_SQUARED 0.275, read-out: LUCIFERASE INFECTION ASSAY - IC50) worked out at 8.61 µM.
For the compound `O=C(CN1C(=O)CSc2ccc(C(F)(F)F)cc21)Nc1ccc(Cl)cc1`, the 90% effect concentration (IC90) came out at 3.03 µM. Further, the IC50 (PBLUC_HILL_SLOPE 15.8, PBLUC_R_SQUARED 0.354, read-out: LUCIFERASE INFECTION ASSAY - IC50) stood at 2.64 µM.
In the case of `COc1ccc(COC(=O)c2sc3nc4n(c(=O)c3c2C)CCC4)cc1F`, the IC90 is above 10 µM. Under “PBLUC_HILL_SLOPE 15.9, PBLUC_R_SQUARED 0.0512, read-out: LUCIFERASE INFECTION ASSAY - IC50”, the IC50 came to 9.36 µM.
`Cc1ccc(Cn2nc(C)c(C(=O)Nc3nc4c(s3)CCCC4)c2Cl)cc1`: the 90% effect concentration (IC90) is above 10 µM. Under “PBLUC_HILL_SLOPE 15.7, PBLUC_R_SQUARED 0.159, read-out: LUCIFERASE INFECTION ASSAY - IC50”, the IC50 is 9.13 µM.
As for `O=C(NNc1cccc(Cl)c1)c1c[nH]c(=S)n1-c1ccccc1`, the 90% effect concentration (IC90) was above 10 µM. Besides, the IC50 (PBLUC_HILL_SLOPE 16, PBLUC_R_SQUARED 0.438, read-out: LUCIFERASE INFECTION ASSAY - IC50) amounted to 9.92 µM.
Regarding `COc1cc(-c2cnc3cnc(-c4cccnc4)cn23)ccc1O`, the 90% effect concentration (IC90) amounted to 3.99 µM. Further, where the note is “PBLUC_HILL_SLOPE 15.7, PBLUC_R_SQUARED 0.533, read-out: LUCIFERASE INFECTION ASSAY - IC50”, the IC50 was found to be 3.47 µM.
As for `CCOc1cc(/C=C2\CSc3c(F)cccc3C2=O)cc(Cl)c1O`, the IC90 is above 10 µM. The IC50 (PBLUC_HILL_SLOPE 15.8, PBLUC_R_SQUARED 0.377, read-out: LUCIFERASE INFECTION ASSAY - IC50) was found to be 9.68 µM.
Consider `Cc1c(-c2ccccc2)oc2c(C(=O)Nc3ccc(N4CCOCC4)c4ccncc34)cccc2c1=O`, for which the IC90 is above 10 µM. Besides, the IC50 (PBLUC_HILL_SLOPE 15.7, PBLUC_R_SQUARED 0.205, read-out: LUCIFERASE INFECTION ASSAY - IC50) turned out to be 9.81 µM.
Regarding `COc1ccc(-c2nccc3n[nH]c(-c4cccc(C(F)(F)F)c4)c23)cc1OC`, the IC90 is above 10 µM. Also, the half-maximal inhibitory concentration (IC50) (PBLUC_HILL_SLOPE 15.9, PBLUC_R_SQUARED 0.0621, read-out: LUCIFERASE INFECTION ASSAY - IC50) came to 9.75 µM.
Turning to `O=C(c1cnc(Nc2cccc(C(F)(F)F)c2)[nH]1)c1ccccc1F`, the concentration for an effect of 90% (IC90) is above 9.45 µM. Also, the IC50 (PBLUC_HILL_SLOPE 15.7, PBLUC_R_SQUARED 0.709, read-out: LUCIFERASE INFECTION ASSAY - IC50) stood at 9.07 µM.
For `Cc1cc(=O)n2nc(C)c(-c3ccc(F)cc3)c2[nH]1`, the IC90 is above 12.8 µM. Further, the IC50 (PBLUC_HILL_SLOPE 15.8, PBLUC_R_SQUARED 0.105, read-out: LUCIFERASE INFECTION ASSAY - IC50) was above 12.8 µM.
Take `Cc1c(Cl)cccc1-n1c(SCC(=O)N(CCC#N)c2ccccc2)nc2ccccc2c1=O`: the IC90 was above 10 µM. Moreover, the IC50 (PBLUC_HILL_SLOPE 15.9, PBLUC_R_SQUARED 0.269, read-out: LUCIFERASE INFECTION ASSAY - IC50) was found to be 9.73 µM.
Turning to `CCOC(=O)c1cc(C#N)c(N2CCN(C(=O)Nc3cccc(C(F)(F)F)c3)CC2)nc1C(F)(F)F`, the IC90 is above 6.4 µM. Moreover, where the note is “PBLUC_HILL_SLOPE 16, PBLUC_R_SQUARED 0.406, read-out: LUCIFERASE INFECTION ASSAY - IC50”, the IC50 turned out to be 6.3 µM.
As to `FC(F)Sc1ccc2nc3ccccc3c(N3CCOCC3)c2c1`, the IC90 amounted to 0.134 µM. Moreover, the IC50 (PBLUC_HILL_SLOPE 15.6, PBLUC_R_SQUARED 0.79, read-out: LUCIFERASE INFECTION ASSAY - IC50) turned out to be 0.117 µM.
Take `O=C(Nc1ccc(Nc2ccccc2)cc1)c1[nH]nc2ccccc12`: the IC90 is above 10 µM. Besides, under “PBLUC_HILL_SLOPE 16, PBLUC_R_SQUARED 0.594, read-out: LUCIFERASE INFECTION ASSAY - IC50”, the IC50 amounted to 8.92 µM.
Take `c1ccc(OCCN2CCN(c3ccc(-c4nc5ccccc5[nH]4)cn3)CC2)cc1`: the 90% effect concentration (IC90) was above 10 µM. The IC50 (PBLUC_HILL_SLOPE 16.1, PBLUC_R_SQUARED 0.136, read-out: LUCIFERASE INFECTION ASSAY - IC50) is 9.41 µM.
Consider `CCOC(=O)c1sc(N(Cc2ccccc2)C(=O)CCc2cc(OC)c(OC)c(OC)c2)nc1C`, for which the 90% effect concentration (IC90) is 4.11 µM. Further, the IC50 (PBLUC_HILL_SLOPE 16, PBLUC_R_SQUARED 0.382, read-out: LUCIFERASE INFECTION ASSAY - IC50) turned out to be 3.58 µM.
Take `O=C(Nc1nc2ccccc2[nH]1)c1cccc(S(=O)(=O)N(Cc2ccccc2)c2ccccc2Cl)c1`: the IC90 came out at 3.66 µM. Besides, under “PBLUC_HILL_SLOPE 15.7, PBLUC_R_SQUARED 0.534, read-out: LUCIFERASE INFECTION ASSAY - IC50”, the IC50 came to 3.18 µM.
Regarding `CN(C)S(=O)(=O)c1ccc(Cn2cc(C(=O)NCc3cccc(C(F)(F)F)c3)sc2=O)cc1`, the IC90 was above 6.61 µM. In addition, the IC50 (PBLUC_HILL_SLOPE 16, PBLUC_R_SQUARED 0.195, read-out: LUCIFERASE INFECTION ASSAY - IC50) was 6.47 µM.
With `N#Cc1c(SCC(=O)c2ccc(F)c(F)c2)nc2c(c1-c1cccs1)CCCC2`, the IC90 was above 7.74 µM. In addition, under “PBLUC_HILL_SLOPE 15.7, PBLUC_R_SQUARED 0.483, read-out: LUCIFERASE INFECTION ASSAY - IC50”, the IC50 turned out to be 7.6 µM.
For the compound `O=C(Nc1cccc(Cl)c1)Nc1ccc2nc(-c3ccncc3)nn2c1`, the IC90 was determined as 3.69 µM. The IC50 (PBLUC_HILL_SLOPE 15.9, PBLUC_R_SQUARED 0.357, read-out: LUCIFERASE INFECTION ASSAY - IC50) was 3.21 µM.
As to `COc1ccc(CCNC2CCc3c(c(C(=O)N(C)C)nn3CC3CCCCC3)C2)cc1` (configuration not stated), the IC90 was above 7.52 µM. Under “PBLUC_HILL_SLOPE 15.6, PBLUC_R_SQUARED 0.553, read-out: LUCIFERASE INFECTION ASSAY - IC50”, the 50% inhibitory concentration (IC50) stood at 7.33 µM.
Regarding `CCCNc1nc(-c2ccc(OC)cc2)c(-c2ccc(OC)cc2)s1`, the IC90 is above 10 µM. In addition, under “PBLUC_HILL_SLOPE 15.7, PBLUC_R_SQUARED 0.0413, read-out: LUCIFERASE INFECTION ASSAY - IC50”, the IC50 stood at 9.99 µM.
For `Clc1cccc(-c2nnc3ccc(-c4ccc(N5CCOCC5)cc4)cn23)c1`, the IC90 is above 10 µM. The IC50 (PBLUC_HILL_SLOPE 15.8, PBLUC_R_SQUARED 0.114, read-out: LUCIFERASE INFECTION ASSAY - IC50) was determined as 9.72 µM.
For the compound `CNC(=O)c1ccc(CN(Cc2csc(-c3ccsc3)n2)Cc2ccco2)cc1`, the concentration for an effect of 90% (IC90) was 3.26 µM. For the same compound, the IC50 (PBLUC_HILL_SLOPE 16.0, 14.5, PBLUC_R_SQUARED 0.463, 0.641, read-out: LUCIFERASE INFECTION ASSAY - IC50) is 2.83 µM.

One may read the IC50 as the concentration that inhibits the measured activity by half. The term IC90 denotes the point of the concentration-response curve where the effect stands at 90%.

The record behind these values is ChEMBL document CHEMBL4483862, “Open-source discovery of chemical leads for next-generation chemoprotective antimalarials” (2018).
